# Measurements from patent US6458847B1, “Method for screening for drugs useful in inhibition of polymerization of aβ and tau peptides” (University of Alabama at Birmingham Research Foundation, priority 1995, dated 2002).
# How the values were obtained:
# [1] = system: adult rat MTτ; test: Arachidonic acid dependence of tau assembly, adult rat MTτ; assay type: biochemical
# Method: (§1) For most experiments, tau proteins were diluted to 2× the desired concentration in buffer A, then 1/2 in borate saline (0.1 M H3BO3, 25 mM Na2B4O7, 75 mM NaCl) supplemented with 20 mM dithiothreitol (DTT) and 2× the required concentration of free fatty acids (final pH ˜8.4). Assembly was performed at 37° C. in siliconized microfuge tubes. For evaluating the dependence of assembly on ionic strength, tau was diluted 1/10 into 111 mM Tris pH 7.2, 11 mM DTT, supplemented to give the indicated final concentrations of NaCl. At 250 mM NaCl, the measured CMC of arachidonic acid in the Tris buffering system was >2 mM. […] For staining of amyloid filaments, 4% uranyl acetate was used and the H2O rinse was omitted. […] For filament length measurements, random micrographs obtained at a nominal magnification of 15K were digitized and traced using either software from Universal Imaging Corporation or the public domain NIH Image program (for Macintosh; written by W. Rasband at the NIH and available from the Internet by anonymous ftp from zippy.nimh.nih.gov or on floppy disk from NTIS, 5285 Port Royal Rd., Springfield, Va. 22161, part number PB93-504868). […] Because short filaments were sometimes difficult to distinguish from background debri in digitized images, high concentrations of DTT were routinely used in order to maximize the production of longer filaments.
# [2] = target: T1, juvenile rat MTτ (Rattus norvegicus, UniProt P19332, DEL587-617); test: Fatty acid dependence of tau assembly, polymer length per field by electron microscopy; assay type: biochemical; conditions: for Polymer Mass (μm/field) / % maximum: 50 μM free fatty acid, 72 hours; for Polymer Mass (μm/field): juvenile rat MTτ, average ± S.E.M. (n = 12); for % maximum: relative to the maximal assembly achieved with arachidonic acid; for stimulation of tau assembly, qualitative examination of grids: 50 μM, below measured CMC values
# T1 construct: killed by decapitation at postnatal day 11 (juveniles); from tissue; host or cells: brain microtubules of P11 Sprague-Dawley rats
# Method: (§2) All free fatty acids were purchased in the cis conformation and at maximum available purity from Sigma Chemical Company free fatty acids were diluted into tau and amyloid samples from a 200× ethanolic stock, such that the final ethanol concentration in all samples and controls was 0.5%.
# Assembly was performed at 37° C. in siliconized microfuge tubes.
# (§3) For staining of amyloid filaments, 4% uranyl acetate was used and the H2O rinse was omitted. […] Because short filaments were sometimes difficult to distinguish from background debri in digitized images, high concentrations of DTT were routinely used in order to maximize the production of longer filaments.
# [3] = Critical micellar concentration by phase partitioning of phenylnaphthylamine; assay type: physicochemical; conditions: for CMC: free fatty acids diluted into assembly buffer
# Method: as §2, with “0.5%. Values for the critical micellar concentration (CMC) were obtained based on the phase partitioning of […] phenylnaphthylamine (Kovatchev et al., 1981) when free fatty acids were diluted into assembly buffer.” for “0.5%.”
# For most experiments, tau proteins were diluted to 2× the desired concentration in buffer A, then 1/2 in borate saline (0.1 M H3BO3, 25 mM Na2B4O7, 75 mM NaCl) supplemented with 20 mM dithiothreitol (DTT) and 2× the required concentration of free fatty acids (final pH ˜8.4). Assembly was performed at 37° C. in siliconized microfuge tubes. For evaluating the dependence of assembly on ionic strength, tau was diluted 1/10 into 111 mM Tris pH 7.2, 11 mM DTT, supplemented to give the indicated final concentrations of NaCl. At 250 mM NaCl, the measured CMC of arachidonic acid in the Tris buffering system was >2 mM.
# [4] = system: tau purified from porcine whole brain; test: Arachidonic acid dependence of tau assembly, porcine whole brain tau; assay type: biochemical; conditions: 20-80 μM arachidonic acid, 66 hours; no spontaneous assembly
# Method: as §3, with “Assembly was performed at 37° C. in siliconized microfuge tubes. […] For” for “For”
# [5] = system: tau; test: Arachidonic acid stimulated polymerization, all tau preparations examined; assay type: biochemical; conditions: tau concentrations of 2.5-5 μM
# Method: as §1
# [6] = target: T2, human recombinant tau (Homo sapiens, UniProt P10636); test: Arachidonic acid dependence of tau assembly, human recombinant tau; assay type: biochemical; conditions: 20-80 μM arachidonic acid, 66 hours; no spontaneous assembly
# T2 construct: the conditions defined herein are conducive to assembly of the full length tau protein; polyhistidine tag; host or cells: E. coli
# Source text: Sprague-Dawley rats were obtained from Charles River, Wilmington, Mass., and killed by decapitation at postnatal day 11 (juveniles) or at greater than six weeks of age (adults). Fresh porcine brains were obtained from Bryan Meat Packing, Westpoint Miss. Detailed protocols for the isolation of tau from whole brain or twice-cycled brain microtubules have been described above. Nonphosphorylated, recombinant human tau (htau40; Goedert et al., 1989) was the gift of Dr. Jeff Kuret, Northwestern University Medical School, Chicago, Ill. Recombinant tau was produced in E. coli as a fusion protein with a polyhistidine tag, and purified to near homogeneity by nickel-chelate and gel filtration chromatography (Carmel et al., 1994). Following purification tau isolates were dialyzed against buffer A (20 mM morpholinoethanesulfonic acid pH 6.8, 80 mM NaCl, 2 mM EGTA, 1 mM MgCl2, 0.1 mM EDTA) and stored at −80° C. Protein concentrations were determined using the method of Lowry (Lowry et al., 1951), after samples in Laemmli sample buffer (Laemmli, 1970) were precipitated with 10 volumes of 10% perchloric acid, 1% phosphotungstic acid. Bovine serum albumin was used as the standard. […] At 250 mM NaCl, the measured CMC of arachidonic acid in the Tris buffering system was >2 mM. […]
# [7] = target: T3, Aβ1-40 (Homo sapiens, UniProt P05067); test: Amyloid peptide assembly, electron microscopy; assay type: biochemical; conditions: 24 hour incubation with 40 mM oleic acid or 50 mM linoleic acid
# T3 construct: Aβ1-40 (Amyloid β-protein, residues 1-40, Sigma); purchased Sigma
# Method: (§4) Aβ1-40 (Amyloid β-protein, residues 1-40, Sigma) was resuspended in Aβ assembly buffer (100 mM Tris pH 7.4, 150 mM NaCl) at a concentration of 0.5 mg/ml, and frozen in aliquots at −80° C. Thawed aliquots were diluted to […] in assembly buffer, and following a 2 hour pre-incubation, were centrifuged for 10 min at 14,000 rpm in an Eppendorf 5415C desktop centrifuge. The clarified solution was then supplemented with free fatty acids (final Aβ concentration ˜[…]), and incubated for 24 hours. Care was taken to perform all procedures at 4° C.
# For staining of amyloid filaments, 4% uranyl acetate was used and the H2O rinse was omitted. […] For filament length measurements, random micrographs obtained at a nominal magnification of 15K were digitized and traced using either software from Universal Imaging Corporation or the public domain NIH Image program (for Macintosh; written by W. Rasband at the NIH and available from the Internet by anonymous ftp from zippy.nimh.nih.gov or on floppy disk from NTIS, 5285 Port Royal Rd., Springfield, Va. 22161, part number PB93-504868). […] Because short filaments were sometimes difficult to distinguish from background debri in digitized images, high concentrations of DTT were routinely used in order to maximize the production of longer filaments.
# [8] = target: T3, Aβ1-40; test: Amyloid peptide assembly, thioflavin T fluorescence spectroscopy; assay type: biochemical; conditions: for fatty acid concentration giving significant increases in polymer content: thioflavin T fluorescence, 24 hours
# Method: as §4
# Fluorescence spectroscopy was performed essentially as described (Castano et al., 1995). Aliquots were diluted 1/6 into 67 mM glycine pH 9, […] thioflavin T, vortexed, and placed in a quartz cuvette. Samples were read on a Perkin Elmer LS-50B luminescence spectrometer, excitation=435 nm, emission=485 nm, slit widths=5 nm. The integrated intensity was averaged from the initial ten, 10 sec sampling intervals. The signal was stable for at least several hours. The fluorescence of five samples lacking Aβ was averaged and subtracted as background from all readings.
# [9] = system: microtubule tau purified from P11 rat, adult rat; conditions: glutathione 1-10 mM
# Method: In general, tau stored at −80° C. in buffer A was thawed at 4° C., diluted into 100 mM Tris pH 7.2 containing DTT or b-mercaptoethanol (bME), and incubated at 37° C. 100 mM MES was used for experiments requiring buffering below pH 7. Final tau concentrations were in the range of 1-10 μM. […] Samples were deposited in 10 ml aliquots onto 400 mesh nickel grids coated with 0.4% formvar, rinsed with 5 drops H2O, and stained with 5 drops of 2% uranyl acetate, the last drop sitting 1 minutes prior to blotting. Grids were examined using a JEOL JEM-100CX transmission electron microscope operated at 80 kV. For filament length measurements, micrographs obtained at a nominal magnification of 15K (FIG. 6) or 10K (FIGS. 7 and 9) were digitized using a SIT68 camera (MTI), and lengths were determined using software from Universal Imaging Corporation. Only filaments contained completely within a field and measuring at least 50 nm were included in data sets. Fields selected at random were chosen at low illumination and without the aid of the 10× binoculars, so that Formvar integrity could be assessed without viewing the filaments present.
# T3 sequence (P05067 672-711 limits assumed): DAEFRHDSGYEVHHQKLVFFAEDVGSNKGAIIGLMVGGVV
# T1 sequence (P19332 with tags, fused parts or gaps isoform P19332-6 DEL209-239): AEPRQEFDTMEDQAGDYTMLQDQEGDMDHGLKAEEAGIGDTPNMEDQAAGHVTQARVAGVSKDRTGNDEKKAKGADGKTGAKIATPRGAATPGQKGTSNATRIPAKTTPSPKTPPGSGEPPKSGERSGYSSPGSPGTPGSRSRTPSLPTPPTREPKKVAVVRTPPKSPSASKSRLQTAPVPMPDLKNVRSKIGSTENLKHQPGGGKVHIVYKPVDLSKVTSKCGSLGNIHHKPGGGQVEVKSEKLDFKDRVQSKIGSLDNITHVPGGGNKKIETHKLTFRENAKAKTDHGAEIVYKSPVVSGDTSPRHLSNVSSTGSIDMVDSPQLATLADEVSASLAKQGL
# T2 sequence (P10636 1-441 isoform P10636-8): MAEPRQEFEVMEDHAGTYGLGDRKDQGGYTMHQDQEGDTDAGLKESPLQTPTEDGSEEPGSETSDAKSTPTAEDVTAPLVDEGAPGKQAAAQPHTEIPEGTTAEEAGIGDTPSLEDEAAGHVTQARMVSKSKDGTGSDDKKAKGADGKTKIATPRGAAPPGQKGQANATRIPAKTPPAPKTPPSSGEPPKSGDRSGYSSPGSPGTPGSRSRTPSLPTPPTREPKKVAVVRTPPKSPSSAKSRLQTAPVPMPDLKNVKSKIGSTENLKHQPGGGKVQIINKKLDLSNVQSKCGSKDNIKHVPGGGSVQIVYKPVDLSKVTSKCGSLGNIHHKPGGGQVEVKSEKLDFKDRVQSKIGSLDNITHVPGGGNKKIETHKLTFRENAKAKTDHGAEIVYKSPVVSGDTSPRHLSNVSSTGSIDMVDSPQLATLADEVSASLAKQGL
Polymer Mass (μm/field) [2] [μm/field],% maximum [2] [%],CMC [3] [mM],Structure (SMILES),other results
,,,"O[C@H](CS)[C@H](O)CS (racemic) [DTT, dithiothreitol]","decrease in total polymer mass ([1]; assembly at 10 mM DTT compared with 0.01-1.0 mM DTT, adult tau, 50 μM arachidonic acid): > 50%"
11.81 ± 1.51,48,,"CCC=CCC=CCC=CCC=CCC=CCCCC(=O)O [5,8,11,14,17-eicosapentaenoic acid]",
24.51 ± 2.58,100,0.16,"CCCCCC=CCC=CCC=CCC=CCCCC(=O)O [5,8,11,14-eicosatetraenoic acid (20:4), 5,8,11,14-eicosatetraenoic acid]","polymerization of adult rat MTτ ([1]; arachidonic acid 10-40 μM): stimulated the polymerization; CMC in the Tris buffering system ([3]; 250 mM NaCl, Tris buffering system): > 2 mM; filament formation, tau purified from porcine whole brain [4]: Filaments were observed; apparent threshold for stimulation of tau assembly ([2]; juvenile MTτ, longest timepoint tested): less than 10 μμM; lowest concentration inducing assembly [5]: 10 to 20 µM; filament formation, human recombinant tau [6]: Filaments were observed"
7.99 ± 1.55,33,,"CCCCCC=CCC=CCC=CCCCCCCC(=O)O [8,11,14-eicosatrienoic acid (20:3), 8,11,14-eicosatrienoic acid]",
14.74 ± 3.31,60,0.21,"CCCCC/C=C\C/C=C\CCCCCCCC(=O)O [9,12-linoleic acid (18:2), 9,12-linoleic acid]",amyloid filament lengths by electron microscopy [7]: dramatic increase in filament lengths; relative potency as inducer of amyloid assembly ([8]; at higher concentrations of free fatty acids (above 40 μM)): more potent inducer of amyloid assembly; fatty acid concentration giving significant increases in polymer content [8]: 40 µM
23.69 ± 4.11,97,0.44,"CCCCCC/C=C\CCCCCCCC(=O)O [9-palmitoleic acid (16:1), 9-palmitoleic acid]",
1.20 ± 0.32,5,,"CCCCCC=CCC=CCCCCCCCCCC(=O)O [11,14-eicosadienoic acid (20:2), 11,14-eicosadienoic acid]",
8.23 ± 1.36,34,,"CCCCCCCCC=CCCCCCCCCCC(=O)O [11-eicosenoic acid (20:1), 11-eicosenoic acid]",
,,,CCCCC/C=C\C/C=C\C/C=C\C/C=C\CCCC(=O)OCC [ethyl ester of arachidonic acid],"stimulation of tau assembly, qualitative examination of grids [2]: did not appear to be stimulated"
,,,N[C@@H](CCC(=O)N[C@@H](CS)C(=O)NCC(=O)O)C(=O)O [glutathione],assembly of microtubule tau (rat) [9]: promoted the assembly
,,,CCCCC/C=C\C/C=C\C/C=C\C/C=C\CCCC(=O)OC [methyl ester of arachidonic acid],"stimulation of tau assembly, qualitative examination of grids [2]: did not appear to be stimulated"
5.50 ± 0.76,22,>1,"CCCCCCCCCCCCCC(=O)O [myristic acid (14:0), myristic acid]",
7.37 ± 0.92,30,,"CCCCCCCCCCCCCCCC(=O)O [palmitic acid (16:0), palmitic acid]",
3.60 ± 0.54,15,>1,"CCCCCCCCCCCCCCCCCC(=O)O [stearic acid (18:0), stearic acid]",

Structure (SMILES),Polymer Mass (μm/field) [2] [μm/field],% maximum [2] [%],CMC [3] [mM],other results
"CC/C=C\C/C=C\C/C=C\CCCCCCCC(=O)O [9,12,15-linolenic acid (18:3), 9,12,15-linolenic acid]",4.01 ± 0.72,16,,
"CCCCCCCC/C=C\CCCCCCCC(=O)O [9-oleic acid (18:1), 9-oleic acid]",7.36 ± 1.77,30,0.59,amyloid filament lengths by electron microscopy [7]: dramatic increase in filament lengths; fatty acid concentration giving significant increases in polymer content [8]: 40 µM
